Test system: MCF-10A cells
Experiment: 1H NMR metabolomics of polar (aqueous) cell extracts
Assay type: cell-based, human
Settings: for number of metabolites altered: 48 h
Method: MDA-MB-231 and MCF-10A cells were seeded in 10-cm-diameter Petri dishes at a density of 6 × 10^5 cells/mL (10 mL per dish) and cultured for 24 h at 37 °C. […] Vehicle solvent control cells received DMSO (0.10% v/v). Samples were collected immediately after 48 h incubation or, to assess cellular recovery, medium was replaced with fresh growth medium (without TAs), and cells were incubated for additional 24 h before collection (48 + 24 h samples). Four independent assays were performed.
After incubation, culture medium was collected and centrifuged (1000× g, 5 min) and the supernatant stored at −80 °C until analysis. Culture medium without cells was placed under the same conditions and collected. Cell extraction was performed as described by Carrola et al.. Briefly, cells were washed four times with PBS and extracted with a mixture of methanol:chloroform:water (1:1:0.7). The resulting polar and organic phases were collected and then dried under vacuum or under a stream of nitrogen gas, respectively. All samples were stored at −80 °C and, at the time of analysis, dried polar extracts were reconstituted in 600 µL of deuterated phosphate buffer (100 mM, pH 7.4) containing 0.1 mM TSP-d4, while organic extracts were reconstituted in deuterated chloroform containing 0.03% TMS. Regarding medium samples, 540 μL were mixed with 60 μL of D2O containing 0.25% TSP-d4. Prior to analysis, 550 μL of each sample were transferred to 5 mm NMR tubes.
^1H NMR spectra of all samples were acquired on a Bruker Avance III HD 500 NMR spectrometer (University of Aveiro, Portuguese NMR Network) operating at 500.13 MHz for ^1H observation equipped with a 5 mm TXI probe. Standard 1D spectra (Bruker pulse programs ‘noesypr1d’, with water suppression, for medium samples and aqueous extracts, and ‘zg’ for organic extracts) were recorded with a 7002.8 Hz spectral width, 32 k data points, a 2 s relaxation delay and 512 scans. Spectral processing comprised exponential multiplication with 0.3 Hz line broadening, zero filling to 64 k data points, manual phasing, baseline correction, and chemical shift calibration to the TSP or TMS signal at 0 ppm. 2D ^1H-^1H total correlation (TOCSY) spectra, ^1H-^13C heteronuclear single quantum correlation (HSQC) spectra and J-resolved spectra were also registered for selected samples to assist spectral assignment. Metabolites were identified with the support of 2D spectra and the spectral reference databases BBIOREFCODE-2-0-0 (Bruker Biospin, Rheinstetten, Germany) and HMDB [28]. Selected signals were then integrated using the AmixViewer software […] (version 3.9.14, Bruker BioSpin, Rheinstetten, Germany) and normalized by the total spectral area. The magnitude of each metabolite change was assessed through the percentage of variation (and its respective error) in exposed samples relatively to controls, and through the effect size (ES) adjusted for small sample numbers (and respective standard error). Metabolite variations with absolute ES greater than 0.8 were expressed in a heatmap, colored as a function of the percentage of variation, employing the R statistical software.

## C=C(C)[C@@H]1CC[C@]2(C(=O)O)CC[C@]3(C)[C@H](CC[C@@H]4[C@@]5(C)CC[C@H](O)C(C)(C)[C@@H]5CC[C@]43C)[C@@H]12 [BA, betulinic acid]
BA 5µM, 48h
  1-MethyInicotinamide %var: 152.75%
  3-Hydroxyisobutyrate %var: -48.45%
  ATP %var: 0%
  Acetate %var: 33.50%
  Ala %var: -39.74%
  Asp %var: -48.70%
  Choline %var: 46.22%
  Citrate %var: -74.68%
  Cr %var: 59.47%
  Dimethylamine %var: -40.51%
  Formate %var: 91.07%
  Fumarate %var: -80.00%
  GPC %var: 307.70%
  GSH %var: -31.85%
  Gln %var: 0%
  Glu %var: -75.91%
  Glucose %var: -56.45%
  Glucose-1-phosphate %var: -93.58%
  Gly %var: 41.70%
  His %var: -25.16%
  Ile %var: 218.16%
  Lactate %var: 161.49%
  Leu %var: 418.85%
  NADH %var: 62.88%
  PC %var: -78.42%
  PCr %var: 0%
  Phe %var: 0%
  Pro %var: 80.04%
  Tyr %var: -16.91%
  UDP-GalNAc %var: 123.58%
  UDP-GlcNAc %var: 151.53%
  UDP-Glucose %var: -75.09%
  Val %var: 138.35%
  myo -Lno %var: -19.23%
  number of polar metabolites with altered intracellular levels: 31
BA 5µM, 48h+24h
  1-MethyInicotinamide %var: 56.61%
  3-Hydroxyisobutyrate %var: -48.51%
  ATP %var: 0%
  Acetate %var: 63.78%
  Ala %var: -65.18%
  Asp %var: -24.38%
  Choline %var: 0%
  Citrate %var: -61.27%
  Cr %var: 0%
  Dimethylamine %var: 0%
  Formate %var: 287.80%
  Fumarate %var: 0%
  GPC %var: 188.81%
  GSH %var: -24.73%
  Gln %var: 0%
  Glu %var: -47.27%
  Glucose %var: 0%
  Glucose-1-phosphate %var: -92.25%
  Gly %var: 0%
  His %var: -44.80%
  Ile %var: 36.26%
  Lactate %var: 0%
  Leu %var: 75.04%
  NADH %var: 0%
  PC %var: 0%
  PCr %var: 0%
  Phe %var: -24.03%
  Pro %var: 0%
  Tyr %var: -36.13%
  UDP-GalNAc %var: 0%
  UDP-GlcNAc %var: 0%
  UDP-Glucose %var: -66.89%
  Val %var: 10.36%
  myo -Lno %var: -52.77%

## C[C@H]1[C@H](C)CC[C@]2(C(=O)O)CC[C@]3(C)C(=CC[C@@H]4[C@@]5(C)CC[C@H](O)C(C)(C)[C@@H]5CC[C@]43C)[C@H]12 [UA, ursolic acid]
UA 10µM, 48h
  1-MethyInicotinamide %var: 38.46%
  3-Hydroxyisobutyrate %var: -23.71%
  ATP %var: 41.52%
  Acetate %var: 0%
  Ala %var: 44.32%
  Asp %var: -38.30%
  Choline %var: 31.99%
  Citrate %var: -36.91%
  Cr %var: -16.76%
  Dimethylamine %var: -53.26%
  Formate %var: 0%
  Fumarate %var: 0%
  GPC %var: 108.51%
  GSH %var: -30.60%
  Gln %var: 0%
  Glu %var: -21.17%
  Glucose %var: -71.26%
  Glucose-1-phosphate %var: -75.94%
  Gly %var: 40.31%
  His %var: 0%
  Ile %var: 211.80%
  Lactate %var: 0%
  Leu %var: 389.84%
  NADH %var: 34.09%
  PC %var: -26.30%
  PCr %var: 34.32%
  Phe %var: 22.52%
  Pro %var: 87.39%
  Tyr %var: 0%
  UDP-GalNAc %var: 62.26%
  UDP-GlcNAc %var: 60.69%
  UDP-Glucose %var: -19.78%
  Val %var: 151.36%
  myo -Lno %var: -13.14%
UA 10µM, 48h+24h
  1-MethyInicotinamide %var: 22.91%
  3-Hydroxyisobutyrate %var: -22.77%
  ATP %var: 0%
  Acetate %var: 0%
  Ala %var: 0%
  Asp %var: -26.58%
  Choline %var: 0%
  Citrate %var: -18.09%
  Cr %var: 0%
  Dimethylamine %var: -15.34%
  Formate %var: 0%
  Fumarate %var: -22.45%
  GPC %var: -32.45%
  GSH %var: -27.29%
  Gln %var: 16.14%
  Glu %var: 0%
  Glucose %var: -31.96%
  Glucose-1-phosphate %var: 0%
  Gly %var: 24.70%
  His %var: 0%
  Ile %var: 58.71%
  Lactate %var: 0%
  Leu %var: 82.57%
  NADH %var: 20.35%
  PC %var: -38.35%
  PCr %var: 24.82%
  Phe %var: 16.59%
  Pro %var: 49.66%
  Tyr %var: 13.28%
  UDP-GalNAc %var: 0%
  UDP-GlcNAc %var: 0%
  UDP-Glucose %var: 0%
  Val %var: 47.98%
  myo -Lno %var: 0%
UA 20µM, 48h
  1-MethyInicotinamide %var: 83.24%
  3-Hydroxyisobutyrate %var: -30.93%
  ATP %var: 53.13%
  Acetate %var: 0%
  Ala %var: 0%
  Asp %var: -46.10%
  Choline %var: 30.58%
  Citrate %var: -38.52%
  Cr %var: 0%
  Dimethylamine %var: -41.93%
  Formate %var: 0%
  Fumarate %var: 0%
  GPC %var: 160.13%
  GSH %var: -21.64%
  Gln %var: 0%
  Glu %var: -23.01%
  Glucose %var: -85.89%
  Glucose-1-phosphate %var: -78.61%
  Gly %var: 38.29%
  His %var: 0%
  Ile %var: 156.93%
  Lactate %var: 0%
  Leu %var: 297.70%
  NADH %var: 46.21%
  PCr %var: 0%
  Phe %var: 0%
  Pro %var: 69.18%
  Tyr %var: 0%
  UDP-GalNAc %var: 68.87%
  UDP-GlcNAc %var: 61.45%
  UDP-Glucose %var: -32.23%
  Val %var: 101.22%
  myo -Lno %var: 0%
UA 20µM, 48h+24h
  1-MethyInicotinamide %var: 50.44%
  3-Hydroxyisobutyrate %var: -30.69%
  ATP %var: 0%
  Acetate %var: 10.61%
  Ala %var: 0%
  Asp %var: -37.26%
  Choline %var: 0%
  Citrate %var: -32.19%
  Cr %var: 28.29%
  Dimethylamine %var: -23.93%
  Formate %var: 0%
  Fumarate %var: -34.69%
  GPC %var: 0%
  GSH %var: -26.66%
  Gln %var: 25.50%
  Glu %var: -11.32%
  Glucose %var: -67.35%
  Glucose-1-phosphate %var: -40.85%
  Gly %var: 31.50%
  His %var: 0%
  Ile %var: 94.71%
  Lactate %var: 0%
  Leu %var: 130.47%
  NADH %var: 55.81%
  PC %var: -38.16%
  PCr %var: 0%
  Phe %var: 27.29%
  Pro %var: 78.81%
  Tyr %var: 21.23%
  UDP-GalNAc %var: 0%
  UDP-GlcNAc %var: 0%
  UDP-Glucose %var: -20.07%
  Val %var: 70.45%
  myo -Lno %var: 0%
UA high concentration
  number of metabolites altered: 22
UA low concentration
  number of metabolites altered: 27

From paper PMC7464159, “Triple Negative Breast Cancer and Breast Epithelial Cells Differentially Reprogram Glucose and Lipid Metabolism upon Treatment with Triterpenic Acids” (Biomolecules, 2020)
